Measured values: PubChem BioAssay (NCI)
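All cell lines were grown in 96-well plates and treated with compound for 48 hours. At the TGI there is no net growth.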

Key:
Assay in all cases: DTP human tumour cell line panel, 48 h
[1] = test system: HCT-116 colon
[2] = test system: HS 578T breast
[3] = test system: UACC-62 melanoma
[4] = test system: SK-MEL-28 melanoma
[5] = test system: CCRF-CEM leukemia
[6] = test system: K-562 leukemia
[7] = test system: 786-0 renal
[8] = test system: IGROV1 ovarian
[9] = test system: RXF 393 renal
[10] = test system: A549 NSCLC

Row | Structure (SMILES) | TGI [1] [µM] | TGI [2] [µM] | TGI [3] [µM] | TGI [4] [µM] | TGI [5] [µM] | TGI [6] [µM] | TGI [7] [µM] | TGI [8] [µM] | TGI [9] [µM] | TGI [10] [µM]
1 | CC(C)c1ccc(/C=C2/C=C(c3ccc4ccccc4c3)OC2=O)cc1 | > 100 | > 100 | > 100 | > 100 | 20 | > 85.3 | > 100 | > 100 | > 100 | > 100
2 | CN1CCN([C@H]2C[C@H]3[C@@H]4CC=C5C[C@@H](O)CC[C@]5(C)[C@H]4CC[C@]3(C)C2=O)CC1 | > 100 | > 100 | > 100 | > 100 | > 100 | > 100 | > 100 | > 100 | > 100 | > 100
3 | COC(=O)c1cc2c(n1S(=O)(=O)c1ccc(C)cc1)C(=O)C(=O)c1[nH]cc(C(=O)OCc3ccccc3)c1-2 | 0.247 | 5.8 | 0.138 | 0.226 | 1.05 | > 100 | 1.07 | 0.559 | 0.824 | 0.351
4 | O=[N+]([O-])C(=C1NCCN1)/C(Cl)=C(\Cl)Br | > 73.2 | > 100 | > 100 | > 77.7 | 28.5 | 31.2 | 33.5 | > 100 | 39.1 | > 100
5 | C=C(Br)C(C)(Cl)CCC(Br)C(C)(C)Cl (stereo not given) | > 100 | > 100 | > 100 | > 100 | 44.5 | > 100 | 39.9 | > 100 | 65.1 | > 100
